According to ChEMBL document CHEMBL5543155, “Design, Synthesis, and Biological Evaluation of β-Trifluoroethoxydimethyl Selenides as Potent Antiosteoporosis Agents” (J Med Chem, 2024):
Activity calls are given as the source filed them.

Key:
MC3T3-E1 = test: Induction of osteoblast differentiation in mouse MC3T3-E1 cells assessed as bone formation by measuring increase in BMP2 protein expression measured after 7 days by Western blot analysis; format: functional, cell-based; conditions: dose 2.5-10 µM, time 7.0 day
[1] = biological target: T1, Tumor necrosis factor ligand superfamily member 11 (Mus musculus) (UniProt O35235); test: Binding affinity to mouse RANKL assessed as increase in resonance units measured upto 240 mins by SPR analysis; conditions: dose 15.63-500 µM
T1 sequence (whole entry): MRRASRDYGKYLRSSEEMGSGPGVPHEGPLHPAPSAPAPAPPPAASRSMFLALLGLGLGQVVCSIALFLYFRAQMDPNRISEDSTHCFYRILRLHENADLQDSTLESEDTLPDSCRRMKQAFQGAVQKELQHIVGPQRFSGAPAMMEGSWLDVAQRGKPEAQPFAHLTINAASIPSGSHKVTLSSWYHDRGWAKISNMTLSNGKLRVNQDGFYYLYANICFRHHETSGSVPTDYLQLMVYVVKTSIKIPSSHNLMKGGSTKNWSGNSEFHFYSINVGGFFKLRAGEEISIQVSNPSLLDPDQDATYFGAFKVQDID

[2] = Toxicity in OVX osteoporotic C57BL/6 mouse assessed as body weight loss at 10 mg/kg, ip administered every other day for 8 weeks and measured every week; format: organism-based; conditions: in vivo, 1344 h
Mus musculus [3] = test: Anti-osteoporosis activity in ovariectomized C57BL/6 mouse assessed as reduction in bone loss by measuring increase in trabecular number at 10 mg/kg, ip administered every other day for 8 weeks by micro-CT analysis; format: functional, organism-based
BMMC [4] = test: Effect on total JNK protein expression in RANKL-induced C57BL/6 mouse BMMC cells at 5 uM pretreated for 6 hrs followed by RANKL stimulation and measured upto 60 mins by Western blot analysis; format: functional, cell-based; conditions: time <= 7.0 hrs
[5] = biological target: MAP kinase p38 (Mus musculus) (UniProt P47811+O08911+Q9WUI1+Q9Z1B7); test: Inhibition of p38 phosphorylation in RANKL-induced C57BL/6 mouse BMMC cells at 5 uM pretreated for 6 hrs followed by RANKL stimulation and measured upto 60 mins by Western blot analysis; format: cell-based; conditions: time <= 7.0 hrs
BMMC [6] = test: Anti-osteoclastogenesis activity in M-CSF/RANKL-induced C57BL/6 mouse BMMC cells assessed as downregulation of cathepsin K gene expression incubated for 5 days by qRT-PCR analysis; format: functional, cell-based; conditions: dose 0-10 µM, time 5.0 day
BMMC [7] = test: Anti-osteoclastogenesis activity in M-CSF/RANKL-induced C57BL/6 mouse BMMC cells assessed as reduction in number of TRAP-positive osteoclasts at 0 to 10 uM incubated for 6 days with media replacement for every 2 days by TRAP-staining based light microscopic analysis; format: functional, cell-based; conditions: dose 0-10 µM, time 6.0 day
[8] = Toxicity in OVX osteoporotic C57BL/6 mouse assessed as abnormal behaviors at 10 mg/kg, ip administered every other day for 8 weeks; format: organism-based; conditions: in vivo, 1344 h
[9] = biological target: T2, Tumor necrosis factor ligand superfamily member 11 (Mus musculus, UniProt O35235); test: Binding affinity to mouse RANKL assessed as dissociation constant by SPR analysis
T2 sequence (O35235 whole entry): T1 sequence (whole entry)

BMMC [10] = test: Anti-osteoclastogenesis activity in M-CSF/RANKL-induced C57BL/6 mouse BMMC cells assessed as downregulation of DC-STAMP gene expression incubated for 5 days by qRT-PCR analysis; format: functional, cell-based; conditions: dose 0-10 µM, time 5.0 day
BMMC [11] = test: Cytotoxicity against C57BL/6 mouse BMMC cells assessed as reduction in cell viability at 30 uM incubated for 48 hrs by MTT assay; format: toxicity, cell-based
[12] = Toxicity in OVX osteoporotic C57BL/6 mouse assessed as effect on size and surface gloss of liver at 10 mg/kg, ip administered every other day for 8 weeks by H and E staining based analysis; format: organism-based; conditions: in vivo, 1344 h
[13] = biological target: Transcription factor p65 (Mus musculus) (UniProt Q04207); test: Inhibition of p65 phosphorylation in RANKL-induced C57BL/6 mouse BMMC cells at 5 uM pretreated for 6 hrs followed by RANKL stimulation and measured upto 60 mins by Western blot analysis; format: cell-based; conditions: time <= 7.0 hrs
Chain of Transcription factor p65 (Mus musculus) (Q04207 whole entry): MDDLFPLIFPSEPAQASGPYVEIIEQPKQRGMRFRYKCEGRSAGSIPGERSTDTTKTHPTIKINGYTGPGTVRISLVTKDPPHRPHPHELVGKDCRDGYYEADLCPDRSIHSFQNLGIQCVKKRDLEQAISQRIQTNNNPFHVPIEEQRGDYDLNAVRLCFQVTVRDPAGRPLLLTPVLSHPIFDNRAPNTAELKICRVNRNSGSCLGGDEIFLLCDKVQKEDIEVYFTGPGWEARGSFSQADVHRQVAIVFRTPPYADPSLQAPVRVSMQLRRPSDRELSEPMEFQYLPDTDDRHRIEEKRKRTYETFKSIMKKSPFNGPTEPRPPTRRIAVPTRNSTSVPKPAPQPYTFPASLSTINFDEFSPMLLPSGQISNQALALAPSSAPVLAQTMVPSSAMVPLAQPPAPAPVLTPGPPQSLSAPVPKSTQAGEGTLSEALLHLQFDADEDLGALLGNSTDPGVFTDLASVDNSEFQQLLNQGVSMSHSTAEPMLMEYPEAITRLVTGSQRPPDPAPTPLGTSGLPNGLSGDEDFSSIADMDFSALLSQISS

BMMC [14] = test: Anti-osteoclastogenesis activity in M-CSF/RANKL-induced C57BL/6 mouse BMMC cells cultured in hydroxyapatite-coated plates assessed as reduction in bone resorbed area per osteoclast incubated for 4 days by microscopic analysis; format: functional, cell-based; conditions: dose 2.5-10 µM, time 4.0 day
[15] = Toxicity in OVX osteoporotic C57BL/6 mouse assessed as effect on size and surface gloss of lung at 10 mg/kg, ip administered every other day for 8 weeks by H and E staining based analysis; format: organism-based; conditions: in vivo, 1344 h
[16] = biological target: c-Jun N-terminal kinase (Mus musculus) (UniProt Q91Y86+Q9WTU6+Q61831); test: Inhibition of JNK phosphorylation in RANKL-induced C57BL/6 mouse BMMC cells at 5 uM pretreated for 6 hrs followed by RANKL stimulation and measured upto 60 mins by Western blot analysis; format: cell-based; conditions: time <= 7.0 hrs
Chain of c-Jun N-terminal kinase (Mus musculus) (Q61831 whole entry, looked up): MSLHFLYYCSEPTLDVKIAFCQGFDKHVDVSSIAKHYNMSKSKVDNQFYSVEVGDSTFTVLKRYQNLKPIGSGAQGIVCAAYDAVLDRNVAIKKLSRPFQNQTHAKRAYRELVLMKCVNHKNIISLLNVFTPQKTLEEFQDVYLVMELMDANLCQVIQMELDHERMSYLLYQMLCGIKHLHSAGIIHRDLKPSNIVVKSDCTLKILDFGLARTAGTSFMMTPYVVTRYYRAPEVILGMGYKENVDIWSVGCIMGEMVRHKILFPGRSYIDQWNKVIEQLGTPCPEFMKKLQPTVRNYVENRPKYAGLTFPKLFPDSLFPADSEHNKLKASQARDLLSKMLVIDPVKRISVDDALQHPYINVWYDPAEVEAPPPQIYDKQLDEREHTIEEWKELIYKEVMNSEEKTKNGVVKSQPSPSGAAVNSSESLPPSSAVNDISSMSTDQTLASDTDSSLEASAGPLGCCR
Chain of c-Jun N-terminal kinase (Mus musculus) (Q91Y86 whole entry, looked up): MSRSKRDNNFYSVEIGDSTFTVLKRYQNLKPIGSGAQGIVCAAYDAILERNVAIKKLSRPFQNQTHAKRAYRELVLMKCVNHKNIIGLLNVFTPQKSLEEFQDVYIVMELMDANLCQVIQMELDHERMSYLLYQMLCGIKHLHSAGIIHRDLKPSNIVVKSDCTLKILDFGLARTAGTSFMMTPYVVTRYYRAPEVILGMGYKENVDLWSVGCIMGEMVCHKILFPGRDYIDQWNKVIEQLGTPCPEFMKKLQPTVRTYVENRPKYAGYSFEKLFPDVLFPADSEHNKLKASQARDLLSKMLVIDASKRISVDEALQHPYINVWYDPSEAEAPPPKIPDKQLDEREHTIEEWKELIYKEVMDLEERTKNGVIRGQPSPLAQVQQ
Chain of c-Jun N-terminal kinase (Mus musculus) (Q9WTU6 whole entry, looked up): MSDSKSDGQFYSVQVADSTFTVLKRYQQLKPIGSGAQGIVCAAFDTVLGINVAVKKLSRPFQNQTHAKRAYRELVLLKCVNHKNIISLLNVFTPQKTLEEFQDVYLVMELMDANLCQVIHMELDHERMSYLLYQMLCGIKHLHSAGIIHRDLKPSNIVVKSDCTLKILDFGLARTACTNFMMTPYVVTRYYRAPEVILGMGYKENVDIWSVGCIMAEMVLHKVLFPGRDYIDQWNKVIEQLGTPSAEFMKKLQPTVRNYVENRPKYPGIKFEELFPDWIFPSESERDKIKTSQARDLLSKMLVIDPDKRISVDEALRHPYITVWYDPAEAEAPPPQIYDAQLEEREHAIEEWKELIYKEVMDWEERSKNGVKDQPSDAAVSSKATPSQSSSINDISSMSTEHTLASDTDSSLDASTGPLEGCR

Mus musculus [17] = test: Anti-osteoporosis activity in ovariectomized C57BL/6 mouse assessed as reduction in bone loss by measuring decrease in trabecular spacing at 10 mg/kg, ip administered every other day for 8 weeks by micro-CT analysis; format: functional, organism-based
BMMC [18] = test: Effect on total p65 protein expression in RANKL-induced C57BL/6 mouse BMMC cells at 5 uM pretreated for 6 hrs followed by RANKL stimulation and measured upto 60 mins by Western blot analysis; format: functional, cell-based; conditions: time <= 7.0 hrs

CC(C)(OCC(F)(F)F)C([Se]c1ccccc1)C(=O)Nc1ccncc1 (centres undefined)
inactive: Activity (BMMC [4]) | Activity (BMMC [18])
268 µM: Kd [9]
active: Activity (MC3T3-E1) Dose-Dependent Effect | Activity [1] | Activity (Mus musculus [3]) | inhibition [5] | Activity (BMMC [6]) Dose-Dependent Effect | Activity (BMMC [7]) | Activity (BMMC [10]) Dose-Dependent Effect | inhibition [13] | Activity (BMMC [14]) Dose-Dependent Effect | inhibition [16] | Activity (Mus musculus [17])
Non-Toxic: Activity [2] | Activity [8] | Activity (BMMC [11]) | Activity [12] | Activity [15]
